Values joined by “and” are separate entries in the source; they are usually repeats but may differ in a detail not shown here. Equal values may be shown once.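 Cultured in 96-well plates, cells were exposed to test compound for 48 hours across five concentrations. Here, GI50 denotes the concentration required for 50% inhibition of growth. TGI marks complete inhibition of growth.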
Key:
Assay in all cases: inhibition of tumour cell growth, NCI panel, 48 h
[1] = test system: HL-60(TB) leukemia
[2] = test system: 786-0 renal
[3] = test system: NCI-H226 lung
[4] = test system: NCI-H460 lung
[5] = test system: SK-MEL-2 melanoma
[6] = test system: NCI-H23 lung
[7] = test system: SNB-75 CNS
[8] = test system: NCI/ADR-RES ovarian
[9] = test system: HOP-62 NSCLC
[10] = test system: SN12C renal

SMILES | GI50 [1] | TGI [1] | GI50 [2] | TGI [2] | GI50 [3] | TGI [3] | GI50 [4] | TGI [4] [µM] | GI50 [5] | TGI [5] | GI50 [6] | TGI [6] [µM] | GI50 [7] [µM] | TGI [7] [µM] | GI50 [8] | TGI [8] [µM] | GI50 [9] [µM] | TGI [9] [µM] | GI50 [10] [µM] | TGI [10] [µM]
COC(=O)C(Br)(C(=O)OC)C(Br)C(Br)C(Br)c1ccccc1 (stereo not drawn) | 2.09 µM | 6.03 µM | 2.72 µM | 6.7 µM | 2.19 µM | 5.71 µM | 17.2 µM | 32.3 | 14.4 µM | 27.8 µM | 5.78 µM | 13.9 | 2.07 | 7.08 | 3.28 µM | 9.99 | 6.31 | 15.7 | 2.16 | 5.3
COc1ccc(C#CC2=C(Br)C(=O)OC2)cc1 | 5.32 µM | > 50 µM | 21.5 µM | > 50 µM | 13.3 µM | 34.6 µM | 10 µM | > 50 | 23 µM | > 50 µM | 10.6 µM | 25.3 | 1.29 | 16.6 | 12 µM | 33.6 |  |  | 8.83 | 16.9
C=C(C)[C@@H]1CC[C@]2(COC(=O)c3ccccc3C(=O)O)CC[C@]3(C)[C@H](CC[C@@H]4[C@@]5(C)CC[C@H](OC(=O)c6ccccc6C(=O)O)C(C)(C)[C@@H]5CC[C@]43C)[C@@H]12 | > 100 µM | > 100 µM | 31.6 µM | > 100 µM | 32 µM | > 100 µM | 85.1 µM | > 100 | 20.6 µM | 54.1 µM | 42.7 µM | > 100 | 15.4 | 36 | 67.6 µM | > 100 | 21.8 | 54.2 | 60.8 | > 100
CSc1ccc(NC(=O)CCl)cc1 |  | > 10 µM |  | > 10 µM |  | > 10 µM |  | > 10 |  | 5.1 µM |  | > 10 |  | 6.23 |  | > 10 |  | > 10 |  | > 10
COc1ccc2c3c1OC1C4(CCC5C(C2)N(CC2CC2)CCC351)OCCO4 (stereo not drawn) |  | > 100 µM |  | > 100 µM |  | > 100 µM |  | > 100 |  | > 100 µM |  | > 100 |  | > 100 |  | > 100 |  | > 100 |  | > 100
NC1=C(/C(N)=N/O)C(c2ccccc2)c2ccc3ccccc3c2O1 (stereo not drawn) | 0.275 µM | 0.788 µM | 0.513 µM | > 58 µM | 8.01 µM | 77.1 µM | 0.341 µM | 16.1 | 19.9 µM | > 100 µM | 0.479 µM | > 100 | 0.108 |  | 0.0578 µM | 1.65 | 0.524 | > 100 | 0.603 | 31
Cn1c(=S)c2[nH]c(SCc3cccnc3)nc2n(C)c1=O |  | > 100 µM |  | > 100 µM |  | > 100 µM |  | > 100 |  | > 100 µM |  | > 100 |  | > 100 |  | > 100 |  | > 100 |  | > 100
COc1ccc(C(=O)c2cc(C)c(OC)c(C)c2)c(OC)c1OC(=O)C(Cl)Cl | 0.0251 µM | 0.0719 µM | 0.396 µM | > 100 µM | 2.41 µM | 7.03 µM | 0.0629 µM | 3.27 | 0.132 µM | > 100 µM | 0.0681 µM | > 100 | 0.031 | > 100 | 0.0324 µM | > 100 | 0.221 | > 100 | 0.0956 | > 100
COc1ccc2c(ccc3oc([N+](=O)[O-])cc32)c1 | 0.0514 µM | 0.487 µM | 0.218 µM | 0.667 µM | 0.193 µM | 0.629 µM | 0.181 µM | 0.85 | 0.107 µM | 0.292 µM | 0.203 µM | 0.605 | 0.201 | 0.573 | 0.177 µM | 1.05 | 0.412 | 2.48 | 0.274 | 7.03
C=CC(=O)N1CCC(CNc2ncnc(N)c2-c2ccc(Oc3ccccc3)cc2)CC1 | 19.9 µM | 46.4 µM | 17.7 µM | 92.9 µM | 19.5 µM | 85.1 µM | 34.8 µM | > 100 | 19.3 µM | 42 µM | 29.8 µM | > 100 | 13.4 | 58.9 | 24.6 µM | 79.4 | 25.8 | 82.6 | 25.2 | > 100
Cc1ccc(Nn2c(SCC(=O)Nc3nc(-c4ccccc4)cs3)nc(C)c2C)cc1 | 4.64 µM | 39.1 µM | 4.41 µM | > 100 µM |  |  | 3.88 µM | 16.5 | 7.58 µM | 35.3 µM | 3.42 µM | > 100 | 2.81 | > 100 | 3.04 µM | 22.2 | 18.4 | > 100 | 3.2 | 14.2
COc1cc2c3c(n(CCCN=[N+]=[N-])c(=O)c2cc1OC)-c1ccc(NC(C)=O)cc1C3=O | 15 µM | > 50 µM | > 50 µM | > 50 µM | > 50 µM | > 50 µM | 8.97 µM | > 50 | > 50 µM | > 50 µM | > 50 µM | > 50 | 25.8 | > 50 | > 50 µM | > 50 | > 50 | > 50 | > 50 | > 50
CC(NNC(=S)N1CCN(c2ccccn2)CC1)c1cccc[n+]1[O-] (stereo not drawn) |  | 16.7 µM |  | > 100 µM |  | > 100 µM |  | > 100 |  |  |  | > 100 |  | > 100 |  | 36.5 |  | > 100 |  | > 100
C=C(C)C1Cc2cc(C(C)=O)ccc2O1 (stereo not drawn) |  | > 100 µM |  | > 100 µM |  | > 100 µM |  | > 100 |  | > 100 µM |  | > 100 |  | > 100 |  | > 100 |  |  |  | > 100
N#Cc1cc2c(=S)[nH]c(=S)[nH]c2nc1SCc1ccccc1 | 30.4 µM | 77.4 µM | 28.1 µM | > 100 µM | 24.4 µM | 94.3 µM | 38.8 µM | > 100 | 66.7 µM | > 100 µM | 32 µM | > 100 |  |  | 28.1 µM | > 100 | 63.2 | > 100 | 22.7 | > 100
O=C(O)c1ccccc1C(=O)Nc1cc2c(cc1Br)-c1ccccc1C2=O |  | > 100 µM |  | > 100 µM |  |  |  | > 100 |  | > 100 µM |  | > 100 |  | > 100 |  | > 100 |  | > 100 |  | > 100
NCCNc1nc2ccc(F)cc2c2c(=O)c3cc(F)ccc3sc12 | 2.28 µM | 5.21 µM | 1.59 µM | 2.96 µM |  |  | 1.85 µM | 3.47 | 1.95 µM | 4.28 µM | 1.65 µM | 3.18 | 0.138 | 5.02 | 1.7 µM | 3.33 | 1.39 | 2.87 | 1.68 | 3.29
CCSc1nc(N)c(C#N)c(-c2ccc(OC)c(OC)c2)c1C#N | 21.8 µM | > 50 µM | 15.7 µM | 49.3 µM |  |  | 13.8 µM | 44.1 | 13.3 µM | > 50 µM | 40.3 µM | > 50 |  |  | 21.9 µM | > 50 | 18.4 | > 50 | 15.1 | > 50
O=C1Nc2cc(-c3ccc(O)cc3)ccc2/C1=C/c1ccc[nH]1 | 0.228 µM |  | 0.396 µM | 4.04 µM | 0.673 µM | > 100 µM |  |  | 0.647 µM | > 25.7 µM | 0.0859 µM | 2.81 | 2.08 | 8.35 | 0.251 µM | > 100 | 0.559 | > 100 | 0.609 | > 100
Cc1cc(O)cc(-c2nn(C)cc2-c2cc(N3CCOCC3)nc(-c3cccnc3)n2)c1 | 2.81 µM | 20.2 µM | 2.52 µM | 11.6 µM | 4.83 µM | 20.5 µM | 3.28 µM | > 100 | 6.28 µM | 31.1 µM | 5.31 µM | 60.3 | 1.48 | 4.49 | 3.43 µM | 33 |  |  | 5.51 | > 100
CCOC(=O)CC1C(CNC(=O)NC)OC(n2cnc3c(NC(=O)Nc4ccccc4)ncnc32)C1O[Si](C)(C)C(C)(C)C (stereo not drawn) |  |  | 2 µM | 5.21 µM | > 100 µM | > 100 µM | 5.53 µM | 25 | 5.42 µM | 33.1 µM | 33.3 µM | > 100 | 4.56 | > 100 | > 100 µM | > 100 | 8.96 | 26.4 | 9.1 | > 100
C#CCn1c2c(c3ccccc3c1=O)C(=O)c1ccccc1-2 |  | 10.2 µM |  | 32 µM |  | 79.3 µM |  |  |  | > 100 µM |  | 40.4 |  | 27.4 |  | 88.7 |  | 24.1 |  | 81.6
COc1ccc(-c2cncn2-c2ccc(-c3nc4cc(OC)c(OC)c(OC)c4s3)cc2)cc1N | 2.2 µM | 9.55 µM | 5.73 µM | > 100 µM | 6.7 µM | > 100 µM | 4.69 µM | > 100 | 6.04 µM | > 100 µM | 4.76 µM | > 100 | 52.3 | > 100 | 3.12 µM | > 100 |  |  | 9.44 | > 100
CCCCCC/C=C\CCCCCCCCCc1cccc(OC)c1O |  | > 100 µM |  | > 100 µM |  | > 100 µM |  |  |  | > 100 µM |  | > 100 |  | > 100 |  | > 100 |  | > 100 |  | > 100
Nc1ncc(-c2ccc3ncnc(N4CCc5cc(F)c(Cl)cc54)c3c2)cc1C(F)(F)F | 0.981 µM | > 100 µM | 1.04 µM | 4.79 µM |  |  | 1.39 µM | > 100 | 2.84 µM | > 100 µM | 2.93 µM | > 100 | 0.308 | 3.59 | 2.05 µM | > 100 | 3.18 | > 100 | 0.754 | > 100
COc1ccc(/C=C\c2cc(OC)c(OC)c(OC)c2)cc1N/C=C\C(=O)c1c[nH]c2ccccc12 |  |  | < 0.01 µM | > 100 µM | 0.016 µM | > 100 µM | < 0.01 µM | 20.3 | < 0.01 µM | 20.3 µM | < 0.01 µM | > 100 | < 0.01 | > 100 | < 0.01 µM | 43.3 | < 0.01 | > 100 | 0.0224 | > 100
CC[C@H](C)C(=O)O[C@H]1C[C@@H](C)C=C2C=C[C@H](C)[C@H](CC[C@@H]3C[C@@H](O)CC(=O)O3)[C@H]21 | 15.9 µM and 19.9 µM | 60.6 µM and 50.6 µM and > 30 µM | 12.9 µM and 6.14 µM | > 100 µM and 20.8 µM and > 30 µM | 10.1 µM and 6.22 µM | 54.7 µM and > 51 µM and > 30 µM | 11.4 µM and 5.59 µM | > 100 | 1.7 µM and 1.12 µM | 8.32 µM and 9.48 µM and > 30 µM | 5.37 µM and 8.14 µM |  |  |  | 2.63 µM and 2.95 µM | > 100 |  | > 100 | 3.02 | 
CCN(CC)CCOc1ccccc1-n1c(C)ccc1-c1ccccc1 | 20.5 µM | 40.6 µM | 17.1 µM | 31.8 µM |  |  | 18.2 µM | 38 |  |  | 14.2 µM | 29.9 | 10.3 | 22.4 | 13.9 µM | 29.9 | 17 | 31.1 | 15.4 | 30.5
O=C1c2ccccc2-c2c1c1ccc3ccccc3c1n2-c1ccccc1 |  |  | 25.3 µM | 53.9 µM | 27.9 µM | 75.2 µM | 31.7 µM | > 100 | > 100 µM | > 100 µM | 56.8 µM | > 100 | 81.2 | > 100 | 20.7 µM | 58.5 | 25.1 | 58.7 | 20.5 | 50
